Data on 13 molecules can be found in PubChem BioAssay (NCI).

Test systems include BT-549 breast; HL-60(TB) leukemia; NCI-H226 lung; NCI-H23 lung; OVCAR-3 ovarian; SK-MEL-2 melanoma; SW-620 colon; SNB-75 CNS.
What all share (test): growth of human tumour cells (NCI), 48 h

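In this assay, cells in 96-well plates receive the compound at five concentrations for 48 hours. Endpoints are linearly interpolated between the surrounding concentrations. At the GI50, growth is halved. TGI denotes the concentration required for complete inhibition of growth.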

With `COc1cc2c3c(c4ccc(O)cc4c2cc1OC)[C@@H](O)[C@@H]1CCCN1C3`, the TGI in the experiment on BT-549 breast was 0.027 µM; in the experiment with HL-60(TB) leukemia, 4.74 µM; in the experiment with NCI-H226 lung it was 0.0137 µM; in the experiment with NCI-H23 lung, 0.0558 µM; in the experiment on OVCAR-3 ovarian it was 0.00493 µM; in the experiment with SK-MEL-2 melanoma it was 0.00429 µM. Also, in the experiment with SW-620 colon, the TGI was found to be 1.25 µM.

Regarding `CN1CCN(Cc2ccc(NC(=O)c3cncc(C#Cc4c(N)ncc5ccccc45)c3)cc2C(F)(F)F)CC1`, the GI50 in the experiment with BT-549 breast is 1.62 µM; in the experiment with HL-60(TB) leukemia it was 0.16 µM; in the experiment on NCI-H23 lung, 0.656 µM; in the experiment with OVCAR-3 ovarian it was 0.817 µM; in the experiment with SK-MEL-2 melanoma it was 0.782 µM; in the experiment with SNB-75 CNS, 0.872 µM. Also, in the experiment on SW-620 colon, the GI50 was 0.185 µM. Further, the TGI in the experiment on BT-549 breast is 4.7 µM; with HL-60(TB) leukemia, 0.781 µM; in the experiment with NCI-H23 lung, 1.46 µM; with OVCAR-3 ovarian, 1.53 µM; in the experiment with SK-MEL-2 melanoma, 1.72 µM; in the experiment on SNB-75 CNS it was 1.61 µM. Also, the TGI in the experiment on SW-620 colon is 0.72 µM.

Regarding `COc1ccccc1NC(=O)c1sc2ncn(CCOc3ccccc3)c(=O)c2c1C`, the GI50 is 26.7 µM with BT-549 breast; 1.93 µM with HL-60(TB) leukemia; 4.93 µM with NCI-H23 lung; 2.91 µM in the experiment on OVCAR-3 ovarian; 3.37 µM in the experiment with SK-MEL-2 melanoma; 2.33 µM in the experiment on SW-620 colon. The TGI with BT-549 breast, in the experiment with HL-60(TB) leukemia, in the experiment with NCI-H23 lung, in the experiment with OVCAR-3 ovarian, in the experiment with SK-MEL-2 melanoma and with SW-620 colon was greater than 50 µM in each case.

For `COc1cc([C@H]2OC[C@@H]3C(c4cc(OC)c5c(c4)OCO5)OC[C@H]23)cc(OC)c1OC` (stereo not given in full), the TGI in the experiment on BT-549 breast, in the experiment on NCI-H226 lung, with NCI-H23 lung, with OVCAR-3 ovarian, in the experiment on SK-MEL-2 melanoma and in the experiment with SNB-75 CNS was greater than 100 µM in each case. The molecule further displayed a TGI with SW-620 colon greater than 100 µM.

As to `CC(C)(C)n1cc(-c2ccnc(NCCCNS(=O)(=O)c3cccc4ccccc34)c2)c(-c2cccc(O)c2)n1`, the GI50 with HL-60(TB) leukemia was 2.68 µM; with NCI-H226 lung, 1.97 µM; in the experiment with NCI-H23 lung, 1.78 µM; with OVCAR-3 ovarian it was 2.06 µM; in the experiment on SK-MEL-2 melanoma it was 1.88 µM; with SNB-75 CNS it was 1.88 µM. Also, the GI50 in the experiment on SW-620 colon is 1.81 µM. In addition, the TGI with HL-60(TB) leukemia came out at 7.26 µM; with NCI-H226 lung, 4.36 µM; in the experiment on NCI-H23 lung, 3.84 µM; in the experiment on OVCAR-3 ovarian, 4.22 µM; in the experiment on SK-MEL-2 melanoma it was 4.06 µM; in the experiment with SNB-75 CNS, 5.48 µM. In the experiment with SW-620 colon, the TGI is 3.62 µM.

Consider `C=C(C)[C@@H]1CC[C@]2(C(=O)O)CC[C@]3(C)[C@H](CC[C@@H]4[C@@]5(C)CCC(N)C(C)(C)[C@@H]5CC[C@]43C)[C@@H]12` (stereo not given in full), for which the GI50 in the experiment on OVCAR-3 ovarian is 1.9 µM; with SK-MEL-2 melanoma it was 1.95 µM; with SNB-75 CNS it was 1.39 µM. For the same molecule, the values for the TGI with OVCAR-3 ovarian, with SK-MEL-2 melanoma and in the experiment with SNB-75 CNS were 3.66 µM, 3.69 µM and 2.72 µM, respectively.

For `CC1=C(\C=C/C(C)=C/C=C/C(C)=C/C=C/C=C(C)\C=C\C=C(C)/C=C/C2=C(C)CCCC2(C)C)C(C)(C)CCC1`, the TGI in the experiment on BT-549 breast, in the experiment with NCI-H226 lung, in the experiment with NCI-H23 lung, in the experiment with OVCAR-3 ovarian, in the experiment on SK-MEL-2 melanoma and in the experiment on SNB-75 CNS was greater than 100 µM each time. In addition, the TGI in the experiment on SW-620 colon was greater than 100 µM.

Consider `O=C(CC1(O)C(=O)Nc2ccc(Cl)cc21)c1ccc(C(=O)NCC2CCC3(CC2)OOC2(CCCCC2)OO3)cc1` (stereo not given), for which the GI50 in the experiment with BT-549 breast is 3.01 µM; with NCI-H226 lung it was 13.1 µM; with NCI-H23 lung, 1.72 µM; in the experiment on SK-MEL-2 melanoma, 2.16 µM; in the experiment on SNB-75 CNS, 1.34 µM; with SW-620 colon, 2.13 µM. The TGI stood at 16.1 µM with BT-549 breast; 41.2 µM in the experiment with NCI-H226 lung; 21.3 µM with NCI-H23 lung; 4.78 µM with SK-MEL-2 melanoma; 3.25 µM in the experiment with SNB-75 CNS; 4.61 µM in the experiment on SW-620 colon.

Take `COc1ccc2c(Cl)cc(NC(=S)Nc3ccccc3)nc2c1`: the TGI is greater than 100 µM with BT-549 breast; greater than 100 µM with NCI-H226 lung; 73.7 µM in the experiment with NCI-H23 lung; greater than 100 µM in the experiment on OVCAR-3 ovarian; 55 µM with SK-MEL-2 melanoma; 52.1 µM with SNB-75 CNS. The molecule further registered a TGI in the experiment on SW-620 colon of 69.1 µM.

As to `COC(=O)C(=O)C(C(=O)C(=O)Nc1cc(C)ccc1C)c1nc2ccccc2[nH]c1=O` (stereo not given), the TGI in the experiment with BT-549 breast, in the experiment with NCI-H226 lung, with NCI-H23 lung, in the experiment with OVCAR-3 ovarian, with SK-MEL-2 melanoma and in the experiment with SNB-75 CNS was greater than 100 µM in each case. In the experiment with SW-620 colon, this molecule yielded a TGI greater than 100 µM.

In the case of `NP1(Oc2ccc(F)cc2)=NP(N)(Oc2ccc(F)cc2)=NP(Oc2ccc(F)cc2)(Oc2ccc(F)cc2)=N1` (stereo not given), the TGI with BT-549 breast amounted to 7.44 µM; in the experiment with HL-60(TB) leukemia it was 22.3 µM; with NCI-H23 lung, 23.9 µM; with OVCAR-3 ovarian, 16 µM; with SNB-75 CNS, 14.5 µM; in the experiment on SW-620 colon it was 24.8 µM.

For the molecule `Nc1nc(SCC#CCCl)c2[nH]cnc2n1`, the GI50 in the experiment on HL-60(TB) leukemia was 2.08 µM; in the experiment on NCI-H226 lung, 8.02 µM; with NCI-H23 lung it was 4.46 µM; with OVCAR-3 ovarian, 3.27 µM; with SK-MEL-2 melanoma, 4.92 µM; with SNB-75 CNS, 4.23 µM. For the same molecule, the GI50 in the experiment on SW-620 colon was 4.1 µM. The TGI was 6.61 µM with HL-60(TB) leukemia; 26.7 µM in the experiment with NCI-H226 lung; 20.1 µM in the experiment on NCI-H23 lung; 10.9 µM in the experiment with OVCAR-3 ovarian; 23.3 µM with SK-MEL-2 melanoma; 17.5 µM with SNB-75 CNS. In the experiment on SW-620 colon, this molecule yielded a TGI of 17.5 µM.

`COc1cc2c(c3oc4c(O)cccc4c(=O)c13)CC(C(C)(O)CCl)O2` (stereo not given): the TGI with BT-549 breast was determined as 12.5 µM; in the experiment with NCI-H226 lung it was 24.2 µM; with NCI-H23 lung, 6.14 µM; in the experiment with OVCAR-3 ovarian, 7.43 µM; with SK-MEL-2 melanoma it was 3.38 µM; in the experiment with SNB-75 CNS, 8.18 µM. The molecule further gave a TGI in the experiment with SW-620 colon of 3.74 µM.
